Data from ChEMBL document CHEMBL2434953, “Safe and easy route for the synthesis of 1,3-dimethyl-1,2,3-triazolium salt and investigation of its anticancer activities” (2013).

What was measured:
Type in all cases: functional
[1] = system: NCI-H522; assay: Growth inhibition of human NCI-H522 cells after 48 hrs by sulforhodamine B assay; conditions: NCI-H522, 48 h
[2] = system: SNB-75; assay: Growth inhibition of human SNB75 cells after 48 hrs by sulforhodamine B assay; conditions: SNB-75, 48 h
[3] = system: NCI-H23; assay: Growth inhibition of human NCI-H23 cells after 48 hrs by sulforhodamine B assay; conditions: NCI-H23, 48 h
[4] = system: HCT-15; assay: Growth inhibition of human HCT15 cells after 48 hrs by sulforhodamine B assay; conditions: HCT-15, 48 h
[5] = Growth inhibition of human EKVX cells after 48 hrs by sulforhodamine B assay
[6] = system: SF-268; assay: Growth inhibition of human SF268 cells after 48 hrs by sulforhodamine B assay; conditions: SF-268, 48 h
[7] = system: NCI-H460; assay: Growth inhibition of human NCI-H460 cells after 48 hrs by sulforhodamine B assay; conditions: NCI-H460, 48 h
[8] = system: SW-620; assay: Growth inhibition of human SW620 cells after 48 hrs by sulforhodamine B assay; conditions: SW-620, 48 h
[9] = system: SF-539; assay: Growth inhibition of human SF539 cells after 48 hrs by sulforhodamine B assay; conditions: SF-539, 48 h
[10] = system: U-251; assay: Growth inhibition of human U251 cells after 48 hrs by sulforhodamine B assay; conditions: U-251, 48 h
[11] = system: SK-MEL-5; assay: Growth inhibition of human SK-MEL-5 cells after 48 hrs by sulforhodamine B assay; conditions: SK-MEL-5, 48 h
[12] = system: NCI-H322M; assay: Growth inhibition of human NCI-H322M cells after 48 hrs by sulforhodamine B assay
[13] = system: HT-29; assay: Growth inhibition of human HT-29 cells after 48 hrs by sulforhodamine B assay; conditions: HT-29, 48 h
[14] = system: KM12; assay: Growth inhibition of human KM12 cells after 48 hrs by sulforhodamine B assay; conditions: KM12, 48 h
[15] = system: SK-MEL-2; assay: Growth inhibition of human SK-MEL-2 cells after 48 hrs by sulforhodamine B assay; conditions: SK-MEL-2, 48 h
[16] = system: NCI-H226; assay: Growth inhibition of human NCI-H226 cells after 48 hrs by sulforhodamine B assay; conditions: NCI-H226, 48 h
[17] = system: Malme-3M; assay: Growth inhibition of human MALME-3M cells after 48 hrs by sulforhodamine B assay
[18] = system: SF-295; assay: Growth inhibition of human SF295 cells after 48 hrs by sulforhodamine B assay; conditions: SF-295, 48 h
[19] = system: SK-MEL-28; assay: Growth inhibition of human SK-MEL-28 cells after 48 hrs by sulforhodamine B assay; conditions: SK-MEL-28, 48 h
[20] = system: A549; assay: Growth inhibition of human A549 cells after 48 hrs by sulforhodamine B assay; conditions: A549, 48 h
[21] = Growth inhibition of human HCC2998 cells after 48 hrs by sulforhodamine B assay; conditions: HCC 2998, 48 h
[22] = system: LOX IMVI; assay: Growth inhibition of human LOXIMVI cells after 48 hrs by sulforhodamine B assay
[23] = system: M14; assay: Growth inhibition of human M14 cells after 48 hrs by sulforhodamine B assay; conditions: M14, 48 h
[24] = system: MDA-MB-435; assay: Growth inhibition of human MDA-MB-435 cells after 48 hrs by sulforhodamine B assay; conditions: MDA-MB-435, 48 h
[25] = system: COLO 205; assay: Growth inhibition of human COLO205 cells after 48 hrs by sulforhodamine B assay; conditions: COLO 205, 48 h
[26] = system: SNB-19; assay: Growth inhibition of human SNB19 cells after 48 hrs by sulforhodamine B assay; conditions: SNB-19, 48 h
[27] = system: HCT-116; assay: Growth inhibition of human HCT116 cells after 48 hrs by sulforhodamine B assay; conditions: HCT-116, 48 h
[28] = system: UACC-257; assay: Growth inhibition of human UACC257 cells after 48 hrs by sulforhodamine B assay; conditions: UACC-257, 48 h
[29] = system: HOP-62; assay: Growth inhibition of human HOP62 cells after 48 hrs by sulforhodamine B assay; conditions: HOP-62, 48 h

In the case of Cn1n[n+](C)c2c1C(=O)c1ccccc1C2=O, the GI50 [1] is reported as 1.41 µM, the GI50 [2] is reported as 1.68 µM and the GI50 [3] is reported as 0.62 µM. It also gave a GI50 [4] of 1.61 µM, a GI50 [5] of 1.21 µM and a GI50 [6] of 0.95 µM. It also gave a GI50 [7] of 0.3 µM, a GI50 [8] of 1.15 µM and a GI50 [9] of 1.35 µM. The GI50 [10] was 1.27 µM, the GI50 [11] was 0.38 µM and the GI50 [12] was 0.28 µM. For the same compound, the GI50 [13] was 1.14 µM, the GI50 [14] was 0.79 µM and the GI50 [15] was 1.57 µM. For the same compound, the GI50 [16] was 0.51 µM, the GI50 [17] was 0.15 µM and the GI50 [18] was 1.05 µM. It also gave a GI50 [19] of 1.61 µM, a GI50 [20] of 0.32 µM and a GI50 [21] of 1.24 µM. It also gave a GI50 [22] of 0.5 µM, a GI50 [23] of 0.68 µM and a GI50 [24] of 0.2 µM. It also gave a GI50 [25] of 1.01 µM, a GI50 [26] of 1.59 µM and a GI50 [27] of 0.68 µM. It also gave a GI50 [28] of 1.79 µM and a GI50 [29] of 1.54 µM.
